# Measured values reported in US20240041042A1, “1-(PYRIDYL)-5-AZINYLPYRAZOLE DERIVATIVES, AND THEIR USE FOR CONTROL OF UNDESIRED PLANT GROWTH” (Bayer Aktiengesellschaft, priority 2020, published 2024).
# Experiments:
# Assay type in all cases: in vivo
# [1] = system: Abutilon theophrasti (ABUTH); experiment: Pre-emergence herbicidal action against ABUTH; details: Dosage column 320 g/ha (title prints 3200 g/ha); scored visually after about 3 weeks; 100% = plants have died
# Outline: (§1)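 Pre-emergence soil-surface spray of compound, formulated as wettable powder or emulsion concentrate, in aqueous suspension or emulsion with 0.5% additive (600 l/ha; rate 320 g/ha or less). Activity rated visually after roughly 3 weeks in the greenhouse as a percentage of untreated controls, 0% meaning no difference.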
# [2] = system: Alopecurus myosuroides (ALOMY); experiment: Pre-emergence herbicidal action against ALOMY; details: scored visually after about 3 weeks, 100% = plants have died
# Outline: as §1
# [3] = system: Amaranthus retroflexus (AMARE); experiment: Pre-emergence herbicidal action against AMARE; details: visual scoring after about 3 weeks vs untreated controls
# Outline: as §1
# Avena fatua (AVEFA) [4] = experiment: Pre-emergence herbicidal action against AVEFA; details: visual scoring after about 3 weeks vs untreated controls
# Outline: as §1
# [5] = system: Echinochloa crus-galli (ECHCG); experiment: Pre-emergence herbicidal action against ECHCG
# Outline: as §1
# Lolium rigidum (LOLRI) [6] = experiment: Pre-emergence herbicidal action against LOLRI
# Outline: as §1
# [7] = system: Matricaria inodora (MATIN); experiment: Pre-emergence herbicidal action against MATIN
# Outline: as §1
# [8] = system: Pharbitis purpurea (PHBPU); experiment: Pre-emergence herbicidal action against PHBPU
# Outline: as §1
# [9] = system: Polygonum convolvulus (POLCO); experiment: Pre-emergence herbicidal action against POLCO
# Outline: as §1
# Setaria viridis (SETVI) [10] = experiment: Pre-emergence herbicidal action against SETVI
# Outline: as §1
# [11] = system: Verconica persica (VERPE); experiment: Pre-emergence herbicidal action against VERPE
# Outline: as §1
# Viola tricolor (VIOTR) [12] = experiment: Pre-emergence herbicidal action against VIOTR
# Outline: as §1
# [13] = system: Alopecurus myosuroides (ALOMY); experiment: Post-emergence herbicidal action against ALOMY; details: visual rating about 3 weeks after treatment vs untreated controls (100% = plants have died, 0% = like control plants)
# Outline: (§2)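 Greenhouse plants sprayed at the one-leaf stage, 2–3 weeks after sowing, with WP or EC formulations plus 0.5% additive at 600 l/ha water. Activity rated visually after about 3 weeks versus untreated controls (100% = dead, 0% = like control), at 320 g/ha or lower.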
# Avena fatua (AVEFA) [14] = experiment: Post-emergence herbicidal action against AVEFA; details: visual rating about 3 weeks after treatment
# Outline: as §2
# [15] = system: Echinochloa crus-galli (ECHCG); experiment: Post-emergence herbicidal action against ECHCG
# Outline: as §2
# Lolium rigidum (LOLRI) [16] = experiment: Post-emergence herbicidal action against LOLRI
# Outline: as §2
# [17] = system: Matricaria inodora (MATIN); experiment: Post-emergence herbicidal action against MATIN
# Outline: as §2
# [18] = system: Pharbitis purpurea (PHBPU); experiment: Post-emergence herbicidal action against PHBPU
# Outline: as §2
# [19] = system: Verconica persica (VERPE); experiment: Post-emergence herbicidal action against VERPE
# Outline: as §2
# Viola tricolor (VIOTR) [20] = experiment: Post-emergence herbicidal action against VIOTR
# Outline: as §2
# Setaria viridis (SETVI) [21] = experiment: Post-emergence herbicidal action against SETVI
# Outline: as §2
Compound,Pre-emergence action against ABUTH [1],Pre-emergence action against ALOMY ([2]; 80 g/ha),Pre-emergence action against ALOMY ([2]; 320 g/ha),Pre-emergence action against AMARE in % ([3]; 80 g/ha),Pre-emergence action against AMARE in % ([3]; 320 g/ha),Pre-emergence action against AVEFA in % (Avena fatua (AVEFA) [4]; 320 g/ha),Pre-emergence action against ECHCG in % ([5]; dosage 80 g/ha),Pre-emergence action against ECHCG in % ([5]; dosage 320 g/ha),Pre-emergence action against LOLRI in % (Lolium rigidum (LOLRI) [6]; dosage 320 g/ha),Pre-emergence action against MATIN in % ([7]; dosage 80 g/ha),Pre-emergence action against MATIN in % ([7]; dosage 320 g/ha),Pre-emergence action against PHBPU in % ([8]; dosage 80 g/ha),Pre-emergence action against PHBPU in % ([8]; dosage 320 g/ha),Pre-emergence action against POLCO in % ([9]; dosage 80 g/ha),Pre-emergence action against POLCO in % ([9]; dosage 320 g/ha),Pre-emergence action against SETVI in % (Setaria viridis (SETVI) [10]; dosage 320 g/ha),Pre-emergence action against VERPE in % ([11]; dosage 320 g/ha),"Pre-emergence action against VIOTR in % (Viola tricolor (VIOTR) [12]; 320 g/ha, Viola tricolor)",Pre-emergence action against VIOTR in % (Viola tricolor (VIOTR) [12]; dosage 80 g/ha),Post-emergence action against ALOMY in % ([13]; 80 g/ha),further results
C[C@@H](Oc1nn(-c2ncccc2F)c(-c2ccc(F)nc2)c1C(F)(F)F)C(=O)O [Example I-317],90%,100%,100%,100%,100%,100%,100%,100%,100%,100%,100%,90%,90%,100%,100%,90%,100%,100%,100%,100%,"Pre-emergence action against AVEFA in % (Avena fatua (AVEFA) [4]; 80 g/ha): 90%; Pre-emergence action against LOLRI in % (Lolium rigidum (LOLRI) [6]; dosage 80 g/ha): 100%; Pre-emergence action against SETVI in % (Setaria viridis (SETVI) [10]; dosage 80 g/ha): 80%; Pre-emergence action against VERPE in % ([11]; dosage 80 g/ha): 80%; Post-emergence action against ALOMY in % ([13]; 320 g/ha): 100%; Post-emergence action against AVEFA in % (Avena fatua (AVEFA) [14]; 80 g/ha): 90%; Post-emergence action against AVEFA in % (Avena fatua (AVEFA) [14]; 320 g/ha): 90%; Post-emergence action against ECHCG in % ([15]; dosage 80 g/ha): 80%; Post-emergence action against ECHCG in % ([15]; dosage 320 g/ha): 90%; Post-emergence action against LOLRI in % (Lolium rigidum (LOLRI) [16]; dosage 80 g/ha): 90%; Post-emergence action against LOLRI in % (Lolium rigidum (LOLRI) [16]; dosage 320 g/ha): 90%; Post-emergence action against MATIN in % ([17]; dosage 80 g/ha): 90%; Post-emergence action against MATIN in % ([17]; dosage 320 g/ha): 90%; Post-emergence action against PHBPU in % ([18]; dosage 320 g/ha): 80%; Post-emergence action against VERPE in % ([19]; 320 g/ha, VERPE): 90%; Post-emergence action against VERPE in % ([19]; dosage 80 g/ha): 90%; Post-emergence action against VIOTR in % (Viola tricolor (VIOTR) [20]; 80 g/ha): 90%; Post-emergence action against VIOTR in % (Viola tricolor (VIOTR) [20]; 320 g/ha): 90%"
CCOC(=O)[C@@H](C)Oc1nn(-c2ncccc2F)c(-c2ccc(F)nc2)c1C(F)(F)F [Example I-308],100%,100%,100%,100%,100%,100%,100%,100%,100%,100%,100%,90%,90%,100%,100%,100%,100%,100%,100%,100%,"Pre-emergence action against AVEFA in % (Avena fatua (AVEFA) [4]; 80 g/ha): 100%; Pre-emergence action against LOLRI in % (Lolium rigidum (LOLRI) [6]; dosage 80 g/ha): 100%; Pre-emergence action against VERPE in % ([11]; dosage 80 g/ha): 100%; Post-emergence action against ALOMY in % ([13]; 320 g/ha): 100%; Post-emergence action against AVEFA in % (Avena fatua (AVEFA) [14]; 80 g/ha): 90%; Post-emergence action against AVEFA in % (Avena fatua (AVEFA) [14]; 320 g/ha): 90%; Post-emergence action against ECHCG in % ([15]; dosage 80 g/ha): 90%; Post-emergence action against ECHCG in % ([15]; dosage 320 g/ha): 90%; Post-emergence action against LOLRI in % (Lolium rigidum (LOLRI) [16]; dosage 80 g/ha): 90%; Post-emergence action against LOLRI in % (Lolium rigidum (LOLRI) [16]; dosage 320 g/ha): 100%; Post-emergence action against MATIN in % ([17]; dosage 80 g/ha): 80%; Post-emergence action against MATIN in % ([17]; dosage 320 g/ha): 90%; Post-emergence action against PHBPU in % ([18]; dosage 320 g/ha): 90%; Post-emergence action against VERPE in % ([19]; 320 g/ha, VERPE): 90%; Post-emergence action against VERPE in % ([19]; dosage 80 g/ha): 90%; Post-emergence action against VIOTR in % (Viola tricolor (VIOTR) [20]; 80 g/ha): 90%; Post-emergence action against VIOTR in % (Viola tricolor (VIOTR) [20]; 320 g/ha): 90%"
CCOC(=O)COc1nn(-c2ncccc2C)c(-c2cncc(F)c2)c1Br [Example I-211],80%,80%,100%,100%,100%,90%,90%,100%,80%,90%,90%,90%,90%,90%,90%,100%,100%,100%,90%,80%,"Pre-emergence action against SETVI in % (Setaria viridis (SETVI) [10]; dosage 80 g/ha): 90%; Post-emergence action against ALOMY in % ([13]; 320 g/ha): 90%; Post-emergence action against ECHCG in % ([15]; dosage 80 g/ha): 80%; Post-emergence action against ECHCG in % ([15]; dosage 320 g/ha): 80%; Post-emergence action against LOLRI in % (Lolium rigidum (LOLRI) [16]; dosage 320 g/ha): 80%; Post-emergence action against MATIN in % ([17]; dosage 80 g/ha): 80%; Post-emergence action against MATIN in % ([17]; dosage 320 g/ha): 80%; Post-emergence action against PHBPU in % ([18]; dosage 80 g/ha): 90%; Post-emergence action against PHBPU in % ([18]; dosage 320 g/ha): 100%; Post-emergence action against SETVI in % (Setaria viridis (SETVI) [21]; dosage 80 g/ha): 80%; Post-emergence action against SETVI in % (Setaria viridis (SETVI) [21]; dosage 320 g/ha): 80%; Post-emergence action against VERPE in % ([19]; 320 g/ha, VERPE): 90%; Post-emergence action against VERPE in % ([19]; dosage 80 g/ha): 80%; Post-emergence action against VIOTR in % (Viola tricolor (VIOTR) [20]; 80 g/ha): 80%; Post-emergence action against VIOTR in % (Viola tricolor (VIOTR) [20]; 320 g/ha): 90%"
